Key:
Type in all cases: biochemical
recombinant human DPP7 = target: T1, recombinant human DPP7 (Homo sapiens, UniProt Q9UHL4); assay: DPP7 inhibition, fluorogenic substrate Lys-Pro-AMC; details: recombinant human DPP7
T1 construct: purchased R&D Systems
Summary of the method: (§1)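 Enzyme per reaction: 50 ng DPP9, 20 ng DPP8, 10 ng each DPP7 and PREP. Compounds were serially diluted (8 points, up to 0.5% DMSO) and incubated at 25 °C.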

recombinant human DPP8 = target: T2, recombinant human DPP8 (Homo sapiens, UniProt Q6V1X1); assay: DPP8 inhibition, fluorogenic substrate Z-Ala-Pro-AMC; details: recombinant human DPP8
T2 construct: purchased PBS Bioscience
Summary of the method: as §1

recombinant human DPP9 = target: T3, recombinant human DPP9 (Homo sapiens, UniProt Q86TI2); assay: DPP9 inhibition, fluorogenic substrate H-Gly-Pro-AMC; details: recombinant human DPP9
T3 construct: purchased R&D Systems
Summary of the method: as §1

recombinant human PREP = target: T4, recombinant human PREP (Homo sapiens, UniProt P48147); assay: PREP inhibition, fluorogenic substrate Z-Gly-Pro-AMC; details: Inhibitory Activity (IC50, nM) PREP, recombinant human PREP
T4 construct: purchased R&D System
T4 sequence (P48147 1-710): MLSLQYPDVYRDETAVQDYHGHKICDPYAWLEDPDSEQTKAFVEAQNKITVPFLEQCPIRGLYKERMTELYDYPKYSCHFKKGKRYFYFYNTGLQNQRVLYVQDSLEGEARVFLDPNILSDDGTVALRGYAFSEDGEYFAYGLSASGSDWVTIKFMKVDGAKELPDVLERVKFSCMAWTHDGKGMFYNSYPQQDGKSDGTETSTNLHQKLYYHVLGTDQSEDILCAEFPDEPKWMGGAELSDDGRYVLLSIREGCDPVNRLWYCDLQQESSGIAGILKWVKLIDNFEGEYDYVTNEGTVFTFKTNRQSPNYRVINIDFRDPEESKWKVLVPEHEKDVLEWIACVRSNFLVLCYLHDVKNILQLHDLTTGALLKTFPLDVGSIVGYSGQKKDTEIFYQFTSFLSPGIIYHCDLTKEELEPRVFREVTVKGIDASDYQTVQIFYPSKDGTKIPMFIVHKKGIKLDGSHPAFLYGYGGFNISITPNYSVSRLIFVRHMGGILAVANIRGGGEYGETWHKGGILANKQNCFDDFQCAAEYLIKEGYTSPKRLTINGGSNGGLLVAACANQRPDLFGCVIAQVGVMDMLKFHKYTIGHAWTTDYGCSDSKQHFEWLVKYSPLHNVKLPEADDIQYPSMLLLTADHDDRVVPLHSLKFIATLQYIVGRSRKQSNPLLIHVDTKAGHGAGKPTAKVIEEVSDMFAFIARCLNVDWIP
Summary of the method: as §1

Recombinant human FAP [1] = target: T5, Recombinant human FAP (Homo sapiens, UniProt Q12884); assay: FAP FRET assay, FGF21-sequence FRET peptide substrate; details: FRET peptide with human FGF21 sequence, 6 μM, 37° C.
T5 construct: purchased R&D systems
T5 sequence (Q12884 1-760): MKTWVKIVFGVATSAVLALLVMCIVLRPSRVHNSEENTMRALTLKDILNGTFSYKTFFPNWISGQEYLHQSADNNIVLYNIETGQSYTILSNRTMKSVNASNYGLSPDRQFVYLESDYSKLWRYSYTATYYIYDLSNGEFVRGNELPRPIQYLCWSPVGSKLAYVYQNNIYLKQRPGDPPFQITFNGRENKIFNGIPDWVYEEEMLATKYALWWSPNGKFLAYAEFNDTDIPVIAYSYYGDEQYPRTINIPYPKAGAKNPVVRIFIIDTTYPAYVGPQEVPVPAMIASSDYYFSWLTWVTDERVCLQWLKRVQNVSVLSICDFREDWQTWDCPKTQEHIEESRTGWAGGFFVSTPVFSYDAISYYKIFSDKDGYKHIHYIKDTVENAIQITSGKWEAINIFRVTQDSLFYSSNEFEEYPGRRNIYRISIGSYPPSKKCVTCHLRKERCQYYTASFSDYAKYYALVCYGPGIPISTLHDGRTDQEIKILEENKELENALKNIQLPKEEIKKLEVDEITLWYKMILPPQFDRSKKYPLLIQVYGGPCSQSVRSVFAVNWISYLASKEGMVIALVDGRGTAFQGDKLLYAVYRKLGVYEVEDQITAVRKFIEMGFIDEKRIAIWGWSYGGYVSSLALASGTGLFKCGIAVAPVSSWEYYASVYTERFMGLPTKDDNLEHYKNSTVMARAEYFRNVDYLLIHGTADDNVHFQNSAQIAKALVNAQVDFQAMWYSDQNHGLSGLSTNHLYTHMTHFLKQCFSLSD
Summary of the method: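 Recombinant human FAP, 10 ng per reaction, in 50 mM HEPES pH 7.2 with 150 mM NaCl, 0.1 mg/ml BSA, 1 mM EDTA; HyLite Fluor 488/QXL 520 FRET peptide of human FGF21 sequence at 6 μM final, ≤0.1% DMSO, 37° C. IC50 from 8-point curves by four-parameter logistic fit.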

DPP4 = DPP4 (Homo sapiens, UniProt P27487); assay: DPP4 inhibition, fluorogenic substrate H-Gly-Pro-AMC; set-up: purchased R&D Systems; details: recombinant human DPP4
Recombinant human FAP [2] = target: T5, Recombinant human FAP; assay: FAP inhibition, fluorogenic substrate Z-Gly-Pro-AMC; details: recombinant human FAP, substrate Z-Gly-Pro-AMC
Summary of the method: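 Recombinant human FAP, 10 ng per reaction, in 50 mM Tris pH 7.5 with 1 M NaCl and 1 mg/ml BSA at 25° C; substrate Z-Gly-Pro-AMC, ≤0.1% DMSO. AMC fluorescence read at ex 380/em 460 nm; % signal-rate decrease vs no-inhibitor control, 8-point curves fitted to a four-parameter logistic for IC50.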

T2 sequence (Q6V1X1 whole entry): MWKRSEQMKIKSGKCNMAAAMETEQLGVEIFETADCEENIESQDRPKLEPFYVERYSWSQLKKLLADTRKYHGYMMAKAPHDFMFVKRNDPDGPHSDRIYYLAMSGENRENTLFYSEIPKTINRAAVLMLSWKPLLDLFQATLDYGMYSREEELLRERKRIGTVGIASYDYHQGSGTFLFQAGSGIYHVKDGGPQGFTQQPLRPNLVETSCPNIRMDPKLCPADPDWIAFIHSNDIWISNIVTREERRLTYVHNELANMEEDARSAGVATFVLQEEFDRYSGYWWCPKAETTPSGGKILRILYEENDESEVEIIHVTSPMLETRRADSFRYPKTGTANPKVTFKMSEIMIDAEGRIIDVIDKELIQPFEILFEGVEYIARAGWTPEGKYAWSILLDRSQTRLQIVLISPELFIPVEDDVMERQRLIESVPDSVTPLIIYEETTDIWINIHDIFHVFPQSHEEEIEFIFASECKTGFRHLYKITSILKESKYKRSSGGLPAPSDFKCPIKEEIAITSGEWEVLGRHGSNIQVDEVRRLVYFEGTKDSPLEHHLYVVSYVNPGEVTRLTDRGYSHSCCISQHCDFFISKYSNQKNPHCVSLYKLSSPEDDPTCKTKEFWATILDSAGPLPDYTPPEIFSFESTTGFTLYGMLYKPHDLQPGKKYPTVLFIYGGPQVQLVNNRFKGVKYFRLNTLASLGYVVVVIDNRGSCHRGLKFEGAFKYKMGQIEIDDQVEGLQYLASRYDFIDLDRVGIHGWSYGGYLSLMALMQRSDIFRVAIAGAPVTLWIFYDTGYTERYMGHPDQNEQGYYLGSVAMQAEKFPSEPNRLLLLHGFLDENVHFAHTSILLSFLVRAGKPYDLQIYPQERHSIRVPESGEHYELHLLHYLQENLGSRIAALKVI
Sequence of DPP4 (P27487 whole entry): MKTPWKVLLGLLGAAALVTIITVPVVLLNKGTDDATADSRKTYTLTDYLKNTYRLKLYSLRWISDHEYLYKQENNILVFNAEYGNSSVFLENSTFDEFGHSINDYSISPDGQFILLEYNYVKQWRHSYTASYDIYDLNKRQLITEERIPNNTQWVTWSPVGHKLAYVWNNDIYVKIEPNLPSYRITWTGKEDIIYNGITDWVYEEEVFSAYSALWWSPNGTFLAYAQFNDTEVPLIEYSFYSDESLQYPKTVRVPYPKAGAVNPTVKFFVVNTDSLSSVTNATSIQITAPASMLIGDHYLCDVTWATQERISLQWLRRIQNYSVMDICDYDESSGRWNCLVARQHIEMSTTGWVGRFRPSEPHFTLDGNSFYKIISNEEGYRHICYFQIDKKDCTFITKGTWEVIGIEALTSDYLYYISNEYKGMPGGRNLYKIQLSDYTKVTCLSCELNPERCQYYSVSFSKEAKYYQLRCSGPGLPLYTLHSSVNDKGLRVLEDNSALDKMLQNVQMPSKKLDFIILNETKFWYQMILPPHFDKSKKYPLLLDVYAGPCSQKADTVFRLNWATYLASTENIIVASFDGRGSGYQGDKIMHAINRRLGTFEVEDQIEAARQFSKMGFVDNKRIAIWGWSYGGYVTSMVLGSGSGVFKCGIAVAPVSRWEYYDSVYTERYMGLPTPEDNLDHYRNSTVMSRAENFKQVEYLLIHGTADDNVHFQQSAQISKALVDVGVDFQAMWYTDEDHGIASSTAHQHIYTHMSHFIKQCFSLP
T3 sequence (Q86TI2 whole entry): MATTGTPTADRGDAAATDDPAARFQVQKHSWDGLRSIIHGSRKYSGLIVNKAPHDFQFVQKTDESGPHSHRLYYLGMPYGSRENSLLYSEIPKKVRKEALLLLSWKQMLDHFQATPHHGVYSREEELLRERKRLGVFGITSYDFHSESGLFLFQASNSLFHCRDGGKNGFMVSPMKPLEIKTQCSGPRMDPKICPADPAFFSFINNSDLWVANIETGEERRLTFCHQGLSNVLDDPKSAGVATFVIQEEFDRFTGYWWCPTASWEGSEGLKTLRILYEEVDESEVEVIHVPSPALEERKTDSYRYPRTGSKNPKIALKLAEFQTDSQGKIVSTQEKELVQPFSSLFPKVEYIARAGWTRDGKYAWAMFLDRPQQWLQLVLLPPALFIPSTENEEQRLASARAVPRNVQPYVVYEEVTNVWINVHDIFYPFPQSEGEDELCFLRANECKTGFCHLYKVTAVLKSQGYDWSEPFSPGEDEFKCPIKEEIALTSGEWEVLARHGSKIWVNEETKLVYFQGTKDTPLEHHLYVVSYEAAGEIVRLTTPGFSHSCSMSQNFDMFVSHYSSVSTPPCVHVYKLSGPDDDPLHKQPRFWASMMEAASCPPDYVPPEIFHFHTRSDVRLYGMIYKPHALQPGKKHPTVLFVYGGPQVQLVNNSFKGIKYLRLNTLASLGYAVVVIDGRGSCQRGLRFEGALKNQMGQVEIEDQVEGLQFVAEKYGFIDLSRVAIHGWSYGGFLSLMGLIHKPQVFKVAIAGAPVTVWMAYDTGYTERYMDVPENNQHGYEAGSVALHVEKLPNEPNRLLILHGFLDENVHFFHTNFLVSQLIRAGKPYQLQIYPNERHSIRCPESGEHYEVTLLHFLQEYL

SMILES	IC50 (recombinant human DPP7) [nM]	IC50 (recombinant human DPP8) [µM]	IC50 (recombinant human DPP9) [µM]	IC50 (recombinant human PREP) [nM]	IC50 (Recombinant human FAP [1]) [nM]	IC50 (DPP4) [nM]	IC50 (Recombinant human FAP [2]) [nM]
Cc1cnc2cccc(N(C)[C@H]3CCN(CC(=O)N4C[C@@H](F)C[C@H]4C#N)C3)c2c1 [Example 155, (2S,4S)-4-fluoro-1-[2-[(3S)-3-[methyl-(3-methyl-5-quinolyl)amino]pyrrolidin-1-yl]acetyl]pyrrolidine-2-carbonitrile]	2900	9.85	5.72	2540	2.4	1850	–
CN(c1ccc(F)c2ncccc12)[C@H]1CCN(CC(=O)N2C[C@@H](F)C[C@H]2C#N)C1 [Example 158, (2S,4S)-4-fluoro-1-(2-((S)-3-((8-fluoroquinolin-5-yl)(methyl)amino)pyrrolidin-1-yl)acetyl)pyrrolidine-2-carbonitrile]	4900	8.62	3.37	1720	4	2090	–
CN(c1ccc(C(F)(F)F)c2ncccc12)[C@H]1CCN(CC(=O)N2C[C@@H](F)C[C@H]2C#N)C1 [Example 159, (2S,4S)-4-fluoro-1-[2-[(3S)-3-[methyl-[8-(trifluoromethyl)-5-quinolyl]amino]pyrrolidin-1-yl]acetyl]pyrrolidine-2-carbonitrile]	61	7.59	3.7	430	6.7	1860	–
N#C[C@@H]1C[C@H](F)CN1C(=O)CN1CC[C@H](Nc2ccc(F)c3ncccc23)C1 [Example 264, (2S,4S)-4-fluoro-1-[2-[(3S)-3-[(8-fluoro-5-quinolyl)amino]pyrrolidin-1-yl]acetyl]pyrrolidine-2-carbonitrile]	2270	3.6	–	–	2.4	1040	1.3
N#C[C@@H]1CCCN1C(=O)CN1CCC(Nc2ccc(C(=O)Nc3ccccn3)c3ncccc23)CC1 [Example 399, 5-[[1-[2-oxo-2-[(2S)-2-cyanopyrrolidin-1-yl]ethyl]-4-piperidyl]amino]-N-(2-pyridyl)quinoline-8-carboxamide]	1010	1.2	3.33	627	1.5	17400	–
N#C[C@@H]1CCCN1C(=O)CN1CCC(Nc2ccc(C(=O)Nc3cccnc3)c3ncccc23)CC1 [Example 400, 5-[[1-[2-oxo-2-[(2S)-2-cyanopyrrolidin-1-yl]ethyl]-4-piperidyl]amino]-N-(3-pyridyl)quinoline-8-carboxamide]	961	0.971	2.01	1960	2.3	17400	–
N#C[C@@H]1CCCN1C(=O)CN1CCC(Nc2ccc(C(=O)Nc3ccncc3)c3ncccc23)CC1 [Example 401, 5-[[1-[2-oxo-2-[(2S)-2-cyanopyrrolidin-1-yl]ethyl]-4-piperidyl]amino]-N-(4-pyridyl)quinoline-8-carboxamide]	775	0.266	1.61	1200	5.9	15200	–
N#C[C@@H]1C[C@H](F)CN1C(=O)CN1CCC(Nc2ccc(C(=O)Nc3ncccn3)c3ncccc23)CC1 [Example 403, 5-[[1-[2-oxo-2-[(2S,4S)-2-cyano-4-fluoro-pyrrolidin-1-yl]ethyl]-4-piperidyl]amino]-N-pyrimidin-2-yl-quinoline-8-carboxamide]	405	0.251	0.558	60.2	1.8	2080	–

The next lines start with the values.

IC50 (recombinant human DPP7) [nM]	IC50 (recombinant human DPP8) [µM]	IC50 (recombinant human DPP9) [µM]	IC50 (recombinant human PREP) [nM]	IC50 (Recombinant human FAP [1]) [nM]	IC50 (DPP4) [nM]	IC50 (Recombinant human FAP [2]) [nM]	SMILES
5060	12	6.79	1020	2.7	736	–	CN(c1cccc2ncc(F)cc12)[C@H]1CCN(CC(=O)N2C[C@@H](F)C[C@H]2C#N)C1 [Example 156, (2S,4S)-4-fluoro-1-(2-((S)-3-((3-fluoroquinolin-5-yl)(methyl)amino)pyrrolidin-1-yl)acetyl)pyrrolidine-2-carbonitrile]
2760	2.43	5.15	3150	3.2	1290	–	N#C[C@@H]1C[C@H](F)CN1C(=O)CN1CC[C@@H](Nc2cccc3ncc(F)cc23)C1 [Example 184, (2S,4S)-4-fluoro-1-[2-[(3R)-3-[(3-fluoro-5-quinolyl)amino]pyrrolidin-1-yl]acetyl]pyrrolidine-2-carbonitrile]
8010	8.23	10.9	7250	2.3	2620	–	N#C[C@@H]1CCCN1C(=O)CN1CC[C@@H](Nc2ccc(F)c3ncccc23)C1 [Example 199, (2S)-1-[2-[(3R)-3-[(8-fluoro-5-quinolyl)amino]pyrrolidin-1-yl]acetyl]pyrrolidine-2-carbonitrile]
6810	14.2	13.1	8080	2.3	12100	–	N#C[C@@H]1CCCN1C(=O)CN1CC[C@@H](Nc2ccc(OC(F)(F)F)c3ncccc23)C1 [Example 202, (2S)-1-[2-[(3R)-3-[[8-(trifluoromethoxy)-5-quinolyl]amino]pyrrolidin-1-yl]acetyl]pyrrolidine-2-carbonitrile]
1130	4.45	2.6	2450	3.4	2750	–	CNC(=O)c1ccc(N[C@H]2CCN(CC(=O)N3C[C@@H](F)C[C@H]3C#N)C2)c2cccnc12 [Example 281, N-methyl-5-[[(3S)-1-[2-oxo-2-[(2S,4S)-2-cyano-4-fluoro-pyrrolidin-1-yl]ethyl]pyrrolidin-3-yl]amino]quinoline-8-carboxamide]
3100	19.8	32.2	6300	9.3	10900	–	CNC(=O)c1ccc(N[C@H]2CCN(CC(=O)N3CCC[C@H]3C#N)C2)c2cccnc12 [Example 286, N-methyl-5-[[(3S)-1-[2-oxo-2-[(2S)-2-cyanopyrrolidin-1-yl]ethyl]pyrrolidin-3-yl]amino]quinoline-8-carboxamide]
1160	1.52	7.83	359	3.7	12400	–	N#C[C@@H]1CCCN1C(=O)CN1CCC(Nc2ccc(C(=O)Nc3ncccn3)c3ncccc23)CC1 [Example 402, 5-[[1-[2-oxo-2-[(2S)-2-cyanopyrrolidin-1-yl]ethyl]-4-piperidyl]amino]-N-pyrimidin-2-yl-quinoline-8-carboxamide]
